Measurements published in patent US8987274B2, “Macrocycles that increase p53 activity and the uses thereof” (Merck Sharp & Dohme Corp, priority 2011, dated 2015).
Like-named read-outs stand apart in the source and are kept apart here.

Assays:
HDM2 protein = HDM2 protein (Homo sapiens, UniProt Q00987); experiment: fluorescence polarization screening assay (FP IC50); assay type: binding; details: first value of the cell (FP), read-out: FP/ SJSA IC50 (nM): FP IC50
Protocol: The compounds were evaluated to determine activity at the HDM2 protein by known methods such as the fluorescence polarization screening assay that measures the inhibitory concentration that achieves 50% of maximal activity (FP IC50) and the dissociation constant for inhibitor binding (FP Ki). [Zhang et al., J. Analytical Biochemistry 331: 138-146 (2004)].

SJSA = experiment: Cell Viability Assay (CellTiter-Glo, ATP quantitation); assay type: cell-based; details: second value of the cell (SJSA cell viability, e.g. 72 hours), read-out: FP/ SJSA IC50 (nM): SJSA IC50
Protocol: Additionally, compounds were tested for activity at the HDM2 protein using the Cell Viability Assay, which measures the number of viable cells in culture after treatment with the inventive compound for a certain period of time e.g. 72 hours based on quantitation of the ATP present (Cell Viability. IC50). [CellTiter-Glo® Luminescent Cell Viability Assay from Promega].

Chain of HDM2 protein (Q00987 whole entry): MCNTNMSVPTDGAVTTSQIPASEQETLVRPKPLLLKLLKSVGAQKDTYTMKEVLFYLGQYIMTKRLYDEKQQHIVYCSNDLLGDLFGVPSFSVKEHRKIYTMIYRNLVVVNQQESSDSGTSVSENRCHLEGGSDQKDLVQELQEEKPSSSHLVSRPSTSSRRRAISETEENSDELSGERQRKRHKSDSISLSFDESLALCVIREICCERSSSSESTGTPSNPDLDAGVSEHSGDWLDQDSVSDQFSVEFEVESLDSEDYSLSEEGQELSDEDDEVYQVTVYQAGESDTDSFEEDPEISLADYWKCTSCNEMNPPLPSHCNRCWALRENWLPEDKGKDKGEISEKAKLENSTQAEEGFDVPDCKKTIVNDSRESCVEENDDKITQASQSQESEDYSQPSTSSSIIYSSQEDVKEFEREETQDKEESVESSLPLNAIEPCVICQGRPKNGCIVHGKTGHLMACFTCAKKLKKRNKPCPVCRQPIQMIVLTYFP

| SMILES | IC50 (HDM2 protein; class symbol) | IC50 (SJSA; class symbol) | IC50 (HDM2 protein; number) | IC50 (SJSA; number) |
| --- | --- | --- | --- | --- |
| COCCOc1ccccc1N1CCN(C(=O)[C@]2(Oc3csc(C(F)(F)F)c3)CCCN3C(=O)c4c(C(F)(F)F)ccnc4OCC/C=C/C[C@@H]32)CC1 [Compound 1, 1-[2-(2- METHOXYETHOXY) PHENYL]-4-[[(10aR)- 6,7,10,10a,11,12,13,14- OCTAHYDRO-16- OXO-1- (TRIFLUOROMETHYL)- 11(S)-[[5- (TRIFLUOROMETHYL)- 3-THIENYL]OXY]-16H- DIPYRIDO[1,2-e:2′3′-b][1,5] OXOAAZACYCLOUNDECIN- 11-YL]CARBONYL] PIPERAZINE.] | 1 to 100 nM | 101 to 500 nM |  |  |
| O=C1c2c(C(F)(F)F)ccnc2OCC/C=C/C[C@H]2N1CCC[C@@]2(Oc1csc(C(F)(F)F)c1)C(=O)N1CCN(c2ccccc2OCCO)CC1 [Compound 2, 1-[2-(2- HYDROXYETHOXY) PHENYL]-4-[[(10aR)- 6,7,10,10a,11,12,13,14- OCTAHYDRO-16- OXO-1- (TRIFLUOROMETHYL)- 11(S)-[[5- (TRIFLUOROMETHYL)-3- THIENYL]OXY]-16H- PYRIDO[1,2-e:2′,3′-b][1,5] OXAAZACYCLOUNDECIN- 11-YL]CARBONYL] PIPERAZINE.] | 1 to 100 nM | 501 to 1000 nM |  |  |
| COCCOc1ccccc1N1CCN(C(=O)[C@]2(Oc3csc(C(F)(F)F)c3)CCCN3C(=O)c4c(C(F)(F)F)ccnc4OCCCC/C=C/C[C@@H]32)CC1 [Compound 3, 1-[[(12aR)- 6,7,8,9,12,12a,13,14,15,16- DECAHYDRO-18-OXO-1- (TRIFLUOROMETHYL)- 13(S)-[[5- (TRIFLUOROMETHYL)-3- THIENYL]OXY]-18H- DIPYRIDO[1,2-e:2′,3′-b][1,5] OXAAZACYCLOTRIDECIN- 13-YL]CARBONYL]-4- [2-(2-METHOXYETHOXY) PHENYL]PIPERAZINE.] | 1 to 100 nM | 1000 to 3000 nM |  |  |
| O=C1c2c(C(F)(F)F)ccnc2OCCC/C=C\C[C@H]2N1CCC[C@@]2(Oc1csc(C(F)(F)F)c1)C(=O)N1CCN(c2ccccc2OCCO)CC1 [Compound 4, 1-[2-(2- HYDROXYETHOXY) PHENYL]-4-[[(11aR)- 7,8,11,11a,12,13,14,15- OCTAHYDRO-17-OXO-1- (TRIFLUOROMETHYL)- 12(S)-[[5- (TRIFLUOROMETHYL)-3- THIENYL]OXY]-6H,17H- DIPYRIDO[1,2-e:2′,3′-b][1,5] OXAAZACYCLODODECIN- 12-YL]CARBONYL] PIPERAZINE.] | 1 to 100 nM | 501 to 1000 nM |  |  |
| O=C1c2c(C(F)(F)F)ccnc2OCCCCCC[C@H]2N1CCC[C@@]2(Oc1csc(C(F)(F)F)c1)C(=O)N1CCN(c2ccccc2OCCO)CC1 [Compound 5, 1-[[(11aR)- 7,8,9,10,11,11a,12,13,14,15- DECAHYDRO-17-OXO-1- (TRIFLUOROMETHYL)- 12-[[5- (TRIFLUOROMETHYL)-3- THIENYL]OXY]-6H,17H- DIPYDRIDO[1,2-e:2′,3′-b][1,5] OXAAZACYCLODODECIN- 12(S)-YL]CARBONYL]-4- [2-(2-HYDROXYETHOXY) PHENYL]PIPERAZINE.] | 1 to 100 nM | 1000 to 3000 nM |  |  |
| O=C1c2c(C(F)(F)F)ccnc2OCCCC/C=C\C[C@H]2N1CCC[C@@]2(Oc1csc(C(F)(F)F)c1)C(=O)N1CCN(c2ccccc2OCCO)CC1 [Compound 6, 1-[[(12aR)- 6,7,8,9,12,12a,13,14,15,16- DECAHYDRO-18-OXO-1- (TRIFLUOROMETHYL)- 13-[[5- (TRIFLUOROMETHYL)-3- THIENYL]OXY]-18H- DIPYDRIDO[1,2-e:2′,3′-b][1,5] OXAAZACYCLOTRIDECIN- 13(S)-YL]CARBONYL]-4- [2-(2-HYDROXYETHOXY) PHENYL]PIPERAZINE.] |  |  | 20 nM | 642 nM |
| O=C1c2c(C(F)(F)F)ccnc2OCCCCCCC[C@H]2N1CCC[C@@]2(Oc1csc(C(F)(F)F)c1)C(=O)N1CCN(c2ccccc2OCCO)CC1 [Compound 7, 1-[[(12aR)-6,7,8,9,10,11,12,12a, 13,14,15,16-DODECAHYDRO- 18-OXO-1- (TRIFLUOROMETHYL)- 13(S)-[[5- (TRIFLUOROMETHYL)-3- THIENYL]OXY]-18H- DIPYRIDO[1,2-e:2′,3′-b][1,5] OXAAZACYCLOTRIDECIN- 13-YL]CARBONYL]-4- [2-(2- HYDROXYETHOXY) PHENYL]PIPERAZINE.] | 1 to 100 nM |  |  |  |
| O=C(O)CCCOc1ccccc1N1CCN(C(=O)[C@]2(Oc3csc(C(F)(F)F)c3)CCCN3C(=O)c4c(C(F)(F)F)ccnc4OCCC/C=C\C[C@@H]32)CC1 [Compound 8, 4-[2-[4-[[(11aR)- 7,8,11,11a,12,13,14,15- OCTAHYDRO-17-OXO-1- (TRIFLUOROMETHYL)- 12(S)-[[5- (TRIFLUOROMETHYL)-3- THIENYL]OXY]-6H,17H- DIPYRIDO[1,2-e:2′,3′-b][1,5] OXAAZACYCLODODECIN- 12-YL]CARBONYL]-1- PIPERAZINYL]PHENOXY] BUTANOIC ACID.] | 1 to 100 nM | 101 to 500 nM |  |  |
| O=C1c2c(C(F)(F)F)ccnc2OCCCC[C@H]2N1CCC[C@@]2(Oc1csc(C(F)(F)F)c1)C(=O)N1CCN(c2ccccc2OCCO)CC1 [Compound 9, 1-[2-(2- HYDROXYETHOXY) PHENYL]-4-[[(9aR)- 7,8,9,9a,10,11,12,13- OCTAHYDRO-15-OXO-1- (TRIFLUOROMETHYL)- 10(S)-[[5- (TRIFLUOROMETHYL)- 3-THIENYL]OXY]-6H,15H- DIPYRIDO[1,2-e:2′,3′-b][1,5] OXAZECIN-10-YL] CARBONYL]PIPERAZINE.] | 1000 to 3000 nM |  |  |  |
| N#CC1(c2ccccc2OCCCC2(C(=O)O)CCC2)CCN(C(=O)[C@]2(Oc3csc(C(F)(F)F)c3)CCCN3C(=O)c4c(C(F)(F)F)ccnc4OCCCCCC[C@@H]32)CC1 [Compound 13, 1-[3-[2-[4-CYANO-1- [[(11a)-7,8,9,10,11,11a,12,13, 14,15-DECAHYDRO-17- OXO-1- (TRIFLUOROMETHYL)- 12(S)-[[5- (TRIFLUOROMETHYL)-3- THIENYL]OXY]-6H,17H- DIPYRIDO[1,2-e:2′,3′-b][1,5] OXAAZACYCLODODECIN- 12YL]CARBONYL]-4- PIPERIDINYL]PHENOXY] PROPYL]CYCLOBUTANE- CARBOXYLIC ACID.] | 1 to 100 nM | 101 to 500 nM |  |  |
